Experimental data as given in PMC5831633 (PLoS ONE, 2018).
Structures can show the parent of a compound that is named as a salt.

Legend:
N1 and N2 sialidases = details: cited from earlier work
[1] = target: N1 wild-type neuraminidase (A/Anhui/1/2005 H5N1) (Influenza A virus, UniProt A0A0C5AGB3); format: biochemical; details: pH 6.5; read-out: Km for the MUNANA substrate
[2] = target: N2 neuraminidase (A/Chicken/HongKong/G9/1997 H9N2) (Influenza A virus, UniProt Q80H78); format: biochemical; details: pH 6.5; read-out: Km for the MUNANA substrate

Compound	IC50 (N1 and N2 sialidases) [µM]	Km [1] [µM]	Km [2] [µM]
CCC(CC)OC1C(NC(C)=O)C(NCc2ccc(-c3ccccc3)cc2)C2C(C(=O)O)C12 (stereo not drawn) [Compound 4a]	10		
CC(=O)N[C@H]1[C@H]([C@H](O)[C@H](O)CO)OC(Oc2ccc3c(C)cc(=O)oc3c2)(C(=O)O)C[C@@H]1O (stereo partly drawn) [MUNANA, 2-(4-methylumbelliferyl) α-D-acetylneuraminic acid sodium salt hydrate]		12.8 ± 1.9	70 ± 6.8
